Some test systems named below: ACHN renal; COLO 205 colon; HL-60(TB) leukemia; HT29 colon; MALME-3M melanoma; NCI-H23 lung; NCI-H460 lung; OVCAR-4 ovarian; SNB-75 CNS; UACC-257 melanoma.
Test in all cases: DTP human tumour cell line panel, 48 h

Molecules are shown by their SMILES.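 Method: 48-hour compound exposure of cells in 96-well plates, five concentrations, linear interpolation of endpoints. GI50 = concentration required for 50% inhibition of growth. TGI denotes the concentration required for complete inhibition of growth.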 Some results are limits rather than exact numbers.

As a reminder, the TGI is the concentration giving total growth inhibition. Turning to `COc1ccccc1NC(=O)CC(=O)NN`, the total growth inhibition concentration (TGI) in the test on ACHN renal, in the test on COLO 205 colon, with HL-60(TB) leukemia, in the test with HT29 colon, in the test on MALME-3M melanoma and with NCI-H23 lung was above 100 µM throughout. Also, the concentration for total growth inhibition (TGI) in the test on NCI-H460 lung, in the test with OVCAR-4 ovarian, in the test on SNB-75 CNS and with UACC-257 melanoma was above 100 µM each time.

Take `O=C(OCc1ccccc1)N1CCNCCNCCN(C(=O)OCc2ccccc2)CCNCC1`: the TGI is above 100 µM in the test with ACHN renal; 26.8 µM in the test on COLO 205 colon; 21.7 µM with HL-60(TB) leukemia; 32.9 µM in the test with HT29 colon; 36.5 µM in the test with MALME-3M melanoma; 52.1 µM in the test with NCI-H460 lung. In addition, the TGI in the test with OVCAR-4 ovarian was above 100 µM; in the test on SNB-75 CNS, 53 µM; with UACC-257 melanoma, 32 µM.

Turning to `Cc1c2cccc-2ccc2c3ccccc3n(C(=O)c3ccc(Cl)cc3)c12`, the TGI in the test on ACHN renal, in the test on COLO 205 colon, with HL-60(TB) leukemia, in the test with HT29 colon, with MALME-3M melanoma and in the test with NCI-H23 lung was above 100 µM each time. Also, the TGI in the test on NCI-H460 lung, with OVCAR-4 ovarian, in the test with SNB-75 CNS and in the test with UACC-257 melanoma was above 100 µM each time.

As to `N/C(=N\N=C\c1ncccc1O)NO`, the concentration for total growth inhibition (TGI) was above 39.8 µM with COLO 205 colon; above 26.5 µM in the test with HL-60(TB) leukemia; above 100 µM with HT29 colon; above 100 µM with MALME-3M melanoma; above 100 µM with NCI-H23 lung; above 100 µM in the test on NCI-H460 lung. The total growth inhibition concentration (TGI) with OVCAR-4 ovarian was above 100 µM; in the test with SNB-75 CNS, above 62.6 µM; in the test on UACC-257 melanoma, above 100 µM.

Take `CCOC(=O)CCC(C(=O)OCC)n1nnc2cc(Nc3c(C)[n+]([O-])c4cc(F)c(OCC)cc4[n+]3[O-])ccc21` (configuration not stated): the concentration for total growth inhibition (TGI) with ACHN renal, in the test with COLO 205 colon, in the test with HL-60(TB) leukemia, in the test on HT29 colon, in the test with MALME-3M melanoma and with NCI-H23 lung was above 100 µM each time. Moreover, the TGI was above 100 µM in the test with NCI-H460 lung, above 100 µM with OVCAR-4 ovarian, 57.2 µM in the test on SNB-75 CNS and above 100 µM with UACC-257 melanoma.

As for `O=C(c1ccc(Cl)cc1)N1CCN=C1c1cc2ccccc2c2ccccc12`, the TGI worked out at 31.2 µM in the test on ACHN renal; 29.5 µM in the test with COLO 205 colon; 49.9 µM with HL-60(TB) leukemia; 30 µM in the test on HT29 colon; 32.5 µM in the test on MALME-3M melanoma; 32.7 µM in the test on NCI-H23 lung. The concentration for total growth inhibition (TGI) in the test with NCI-H460 lung stood at 24.9 µM; in the test on OVCAR-4 ovarian it was 27.7 µM; in the test with SNB-75 CNS, 25.7 µM; with UACC-257 melanoma, 31.8 µM.

On to `CCCCCCCCOc1ccc(/C=C/C2=[N+](CCO)CCO2)cc1`, for which the TGI in the test on ACHN renal was 13 µM; with COLO 205 colon, 5.69 µM; in the test on HL-60(TB) leukemia it was 4.74 µM; with HT29 colon, 8.26 µM; with MALME-3M melanoma, 12.2 µM; with NCI-H23 lung it was 5.28 µM. The TGI with NCI-H460 lung is 10.5 µM; with OVCAR-4 ovarian it was 14.2 µM; with SNB-75 CNS it was 9.2 µM; in the test with UACC-257 melanoma, 12.4 µM.

For `CCNc1cc2c3c(c1)CCN3CCC2`, the TGI with ACHN renal, in the test with COLO 205 colon, with HL-60(TB) leukemia, in the test on HT29 colon, in the test with MALME-3M melanoma and with NCI-H23 lung was above 10 µM in each case. Also, the total growth inhibition concentration (TGI) in the test with NCI-H460 lung, in the test with OVCAR-4 ovarian, in the test on SNB-75 CNS and in the test with UACC-257 melanoma was above 10 µM each time.

Take `O=c1c2ccccc2nc2ccc3c(Cl)[nH][nH]c3c12`: the concentration for total growth inhibition (TGI) in the test with ACHN renal is above 100 µM; in the test on COLO 205 colon it was above 100 µM; in the test on HL-60(TB) leukemia, above 100 µM; in the test on HT29 colon it was above 100 µM; in the test with MALME-3M melanoma it was 77.3 µM; in the test on NCI-H23 lung, above 100 µM. The TGI in the test on NCI-H460 lung is above 100 µM; in the test with OVCAR-4 ovarian it was above 100 µM; in the test on SNB-75 CNS it was above 100 µM; in the test on UACC-257 melanoma, above 92.7 µM.

With `Cc1ccccc1NC(=O)CC(=O)NNC(Sc1ccccc1)c1cc(N=Nc2ccc(Br)cc2)ccc1O` (configuration not stated), the TGI was above 10 µM with ACHN renal; above 10 µM with COLO 205 colon; 0.907 µM with HL-60(TB) leukemia; above 10 µM in the test with HT29 colon; above 10 µM with MALME-3M melanoma; above 10 µM in the test with NCI-H23 lung. For the same molecule, the concentration for total growth inhibition (TGI) with NCI-H460 lung, in the test with OVCAR-4 ovarian, with SNB-75 CNS and in the test with UACC-257 melanoma was above 10 µM throughout.

For `Cc1ccc(S(=O)(=O)NC(=O)C2=C3SCCN3C(=O)N(S(=O)(=O)c3ccc(C)cc3)C2c2ccccc2)cc1` (configuration not stated), the TGI in the test on ACHN renal is above 100 µM; with COLO 205 colon it was 43.6 µM; in the test on HL-60(TB) leukemia, above 100 µM; in the test with HT29 colon, above 100 µM; in the test with MALME-3M melanoma it was above 100 µM; with NCI-H23 lung, above 100 µM. Moreover, the TGI in the test on NCI-H460 lung, in the test with OVCAR-4 ovarian, with SNB-75 CNS and in the test on UACC-257 melanoma was above 100 µM throughout.

Take `Cc1cc(S(=O)(=O)/N=C(/NN)Nc2ccc(Cl)cc2)c(S)cc1Cl`: the TGI was 20 µM in the test with ACHN renal; 33 µM with COLO 205 colon; 63.8 µM in the test on HL-60(TB) leukemia; 49.2 µM with HT29 colon; 37.1 µM with MALME-3M melanoma; 17.1 µM in the test on NCI-H460 lung. The TGI in the test on OVCAR-4 ovarian was 62.8 µM; in the test with SNB-75 CNS, 28.8 µM; in the test with UACC-257 melanoma it was 72.5 µM.

Usually GI50 stands for the concentration at which growth is held to half of that of the control. Consider `COc1ccccc1C1C(C#N)=C(N)Oc2n[nH]c(C)c21` (configuration not stated), for which the GI50 was above 100 µM in the test with ACHN renal; above 100 µM in the test on COLO 205 colon; 62 µM in the test on HL-60(TB) leukemia; above 100 µM with HT29 colon; above 100 µM with MALME-3M melanoma; above 100 µM with NCI-H23 lung. For the same molecule, the GI50 in the test with NCI-H460 lung, in the test with OVCAR-4 ovarian, in the test with SNB-75 CNS and in the test on UACC-257 melanoma was above 100 µM throughout. Also, the concentration for total growth inhibition (TGI) in the test with ACHN renal, in the test with COLO 205 colon, in the test on HL-60(TB) leukemia, in the test on HT29 colon, with MALME-3M melanoma and with NCI-H23 lung was above 100 µM throughout. In addition, the total growth inhibition concentration (TGI) in the test with NCI-H460 lung, in the test on OVCAR-4 ovarian, in the test with SNB-75 CNS and in the test with UACC-257 melanoma was above 100 µM each time.
